Read-outs that look alike come from different tables or passages of the source.
Assays:
Assay type in all cases: binding
[1] = molecular target: T1, HeLa cell extract proteins (Homo sapiens, UniProt P26639)
T1 construct: endogenous in cells; host or cells: HeLa cell extract
T1 sequence (P26639 1-723): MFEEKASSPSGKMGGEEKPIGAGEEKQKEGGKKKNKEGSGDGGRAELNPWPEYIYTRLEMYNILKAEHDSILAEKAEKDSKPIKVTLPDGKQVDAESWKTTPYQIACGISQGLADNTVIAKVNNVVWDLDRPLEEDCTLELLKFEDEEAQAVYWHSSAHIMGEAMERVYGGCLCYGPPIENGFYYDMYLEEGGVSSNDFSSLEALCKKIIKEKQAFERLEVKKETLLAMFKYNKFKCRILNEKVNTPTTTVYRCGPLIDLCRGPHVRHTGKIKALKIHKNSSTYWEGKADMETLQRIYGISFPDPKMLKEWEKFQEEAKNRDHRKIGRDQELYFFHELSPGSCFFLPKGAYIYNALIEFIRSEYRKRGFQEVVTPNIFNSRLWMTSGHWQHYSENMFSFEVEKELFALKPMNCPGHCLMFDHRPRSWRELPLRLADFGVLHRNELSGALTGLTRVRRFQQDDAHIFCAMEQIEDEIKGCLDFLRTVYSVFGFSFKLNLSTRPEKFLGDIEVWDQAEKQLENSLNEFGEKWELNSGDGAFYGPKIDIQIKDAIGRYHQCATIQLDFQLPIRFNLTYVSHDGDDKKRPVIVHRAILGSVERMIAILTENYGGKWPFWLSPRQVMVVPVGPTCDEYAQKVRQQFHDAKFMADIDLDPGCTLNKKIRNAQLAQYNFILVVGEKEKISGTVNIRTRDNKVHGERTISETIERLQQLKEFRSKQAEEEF

[2] = molecular target: T2, HeLa cell extract proteins (Homo sapiens, UniProt P16070)
T2 construct: endogenous in cells; host or cells: HeLa cell extract

[3] = molecular target: T3, HeLa cell extract proteins (Homo sapiens, UniProt Q9HAV4)
T3 construct: endogenous in cells; host or cells: HeLa cell extract
T3 sequence (Q9HAV4 1-1204): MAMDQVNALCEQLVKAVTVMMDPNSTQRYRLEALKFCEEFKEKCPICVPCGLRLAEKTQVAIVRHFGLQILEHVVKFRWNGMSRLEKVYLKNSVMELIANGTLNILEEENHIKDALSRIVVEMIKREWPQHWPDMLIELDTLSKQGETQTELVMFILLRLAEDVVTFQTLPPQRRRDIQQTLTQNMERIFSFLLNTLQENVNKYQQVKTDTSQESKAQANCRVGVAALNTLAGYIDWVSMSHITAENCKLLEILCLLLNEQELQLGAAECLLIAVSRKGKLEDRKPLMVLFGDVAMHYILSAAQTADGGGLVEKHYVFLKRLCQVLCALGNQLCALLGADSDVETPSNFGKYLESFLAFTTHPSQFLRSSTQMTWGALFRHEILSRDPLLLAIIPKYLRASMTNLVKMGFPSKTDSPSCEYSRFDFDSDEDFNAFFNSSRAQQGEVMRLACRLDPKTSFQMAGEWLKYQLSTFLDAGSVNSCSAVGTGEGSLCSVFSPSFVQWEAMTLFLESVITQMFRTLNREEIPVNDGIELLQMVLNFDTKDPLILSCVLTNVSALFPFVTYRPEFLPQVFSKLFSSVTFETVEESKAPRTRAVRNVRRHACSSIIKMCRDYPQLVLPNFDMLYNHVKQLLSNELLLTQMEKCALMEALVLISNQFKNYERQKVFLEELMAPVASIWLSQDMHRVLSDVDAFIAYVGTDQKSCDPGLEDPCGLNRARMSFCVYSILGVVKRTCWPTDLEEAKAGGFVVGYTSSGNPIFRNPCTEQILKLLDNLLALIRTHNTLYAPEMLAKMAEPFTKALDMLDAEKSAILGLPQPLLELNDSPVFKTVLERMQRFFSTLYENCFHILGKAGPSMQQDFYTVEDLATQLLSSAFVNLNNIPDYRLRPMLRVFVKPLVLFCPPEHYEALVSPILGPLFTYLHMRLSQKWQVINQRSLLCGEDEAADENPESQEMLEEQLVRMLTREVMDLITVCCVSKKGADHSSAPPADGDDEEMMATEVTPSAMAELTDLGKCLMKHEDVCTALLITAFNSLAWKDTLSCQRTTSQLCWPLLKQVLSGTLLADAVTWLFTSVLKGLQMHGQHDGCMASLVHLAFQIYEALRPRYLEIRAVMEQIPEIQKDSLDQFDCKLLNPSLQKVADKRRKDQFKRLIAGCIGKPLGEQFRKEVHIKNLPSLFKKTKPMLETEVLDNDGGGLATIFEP

[4] = molecular target: T4, HeLa cell extract proteins (Homo sapiens, UniProt Q15029)
T4 construct: endogenous in cells; host or cells: HeLa cell extract
T4 sequence (Q15029 1-972): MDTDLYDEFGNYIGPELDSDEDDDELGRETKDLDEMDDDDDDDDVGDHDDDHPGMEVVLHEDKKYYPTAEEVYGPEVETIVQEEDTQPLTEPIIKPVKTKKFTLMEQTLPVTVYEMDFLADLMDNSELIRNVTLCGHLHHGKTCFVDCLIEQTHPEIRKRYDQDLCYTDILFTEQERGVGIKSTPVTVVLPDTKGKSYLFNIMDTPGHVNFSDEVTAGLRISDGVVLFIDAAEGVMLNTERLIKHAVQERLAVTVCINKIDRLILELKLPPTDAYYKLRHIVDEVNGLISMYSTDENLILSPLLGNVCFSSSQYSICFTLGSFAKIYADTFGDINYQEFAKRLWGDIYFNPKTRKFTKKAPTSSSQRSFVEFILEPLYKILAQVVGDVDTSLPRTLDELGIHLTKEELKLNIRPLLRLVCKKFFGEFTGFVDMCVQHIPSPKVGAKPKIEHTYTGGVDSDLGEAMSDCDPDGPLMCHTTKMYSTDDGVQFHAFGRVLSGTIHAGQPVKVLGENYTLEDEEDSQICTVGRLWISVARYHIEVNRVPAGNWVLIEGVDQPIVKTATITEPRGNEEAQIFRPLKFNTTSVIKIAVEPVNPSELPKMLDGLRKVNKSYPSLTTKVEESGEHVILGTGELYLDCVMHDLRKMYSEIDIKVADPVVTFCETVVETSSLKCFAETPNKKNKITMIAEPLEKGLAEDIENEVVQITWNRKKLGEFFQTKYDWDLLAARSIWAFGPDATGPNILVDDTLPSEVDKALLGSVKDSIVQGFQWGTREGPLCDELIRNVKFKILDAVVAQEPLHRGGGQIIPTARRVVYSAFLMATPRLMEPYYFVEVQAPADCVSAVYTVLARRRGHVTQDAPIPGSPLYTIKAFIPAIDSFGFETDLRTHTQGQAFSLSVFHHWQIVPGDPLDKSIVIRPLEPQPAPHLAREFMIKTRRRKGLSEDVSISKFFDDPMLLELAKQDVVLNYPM

T2 sequence (P16070 21-742): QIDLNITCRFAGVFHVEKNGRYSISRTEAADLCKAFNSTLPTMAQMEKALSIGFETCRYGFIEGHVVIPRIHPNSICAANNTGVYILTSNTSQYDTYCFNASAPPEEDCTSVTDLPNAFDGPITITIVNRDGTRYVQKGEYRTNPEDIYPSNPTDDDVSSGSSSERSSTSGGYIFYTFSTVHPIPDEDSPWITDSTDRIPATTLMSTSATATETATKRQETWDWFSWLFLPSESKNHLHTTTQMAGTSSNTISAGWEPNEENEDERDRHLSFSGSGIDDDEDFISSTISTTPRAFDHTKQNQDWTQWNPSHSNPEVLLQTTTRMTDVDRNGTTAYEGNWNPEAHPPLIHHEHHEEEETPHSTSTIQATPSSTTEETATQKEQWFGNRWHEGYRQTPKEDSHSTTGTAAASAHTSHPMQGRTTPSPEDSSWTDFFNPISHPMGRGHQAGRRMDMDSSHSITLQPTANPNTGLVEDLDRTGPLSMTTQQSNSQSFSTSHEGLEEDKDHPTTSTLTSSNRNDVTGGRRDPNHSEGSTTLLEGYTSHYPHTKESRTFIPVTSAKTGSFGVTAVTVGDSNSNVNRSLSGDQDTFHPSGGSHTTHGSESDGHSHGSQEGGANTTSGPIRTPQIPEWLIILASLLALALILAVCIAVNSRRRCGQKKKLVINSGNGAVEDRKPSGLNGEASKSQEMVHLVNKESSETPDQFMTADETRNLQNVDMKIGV

Row | Compound | fold changes relative to vehicle control ([1]; HeLa, protein TARS) | fold changes relative to vehicle control ([2]; protein CD44, HeLa) | fold changes relative to vehicle control ([3]; protein XPO5, HeLa) | fold changes relative to vehicle control ([4]; HeLa, protein EFTUD2) | fold changes relative to vehicle control ([1]; protein TARS, HeLa) | fold changes relative to vehicle control ([3]; HeLa, protein XPO5) | fold changes relative to vehicle control ([4]; protein EFTUD2, HeLa) | fold changes relative to vehicle control [1] | fold changes relative to vehicle control [2] | fold changes relative to vehicle control [3] | fold changes relative to vehicle control [4]
1 | Nc1nc2c(c(=O)[nH]1)N(C=O)C(CNc1ccc(C(=O)N[C@@H](CCC(=O)O)C(=O)O)cc1)CN2 (stereo partly shown) [LEU, leucovorin] | 1.03 | 1.08 | 0.86 | 0.97 | – | – | – | – | – | – | –
2 | NCCCNc1ccc(C(=O)NC(CCC(=O)O)C(=O)O)cc1 (stereo not shown) [compound 7] | 0.97 | 1.06 | 0.98 | 0.91 | – | – | – | – | – | – | –
3 | CCCCCCOc1cccc(Cc2cnc(N)nc2N)c1 [compound 2] | – | 1.42 | – | – | 2.02 | 1.18 | 1.4 | – | – | – | –
4 | CCCCCCOc1ccc(Cc2cnc(N)nc2N)cc1 [compound 1] | – | 1.08 | – | – | 1.27 | 1 | 1.11 | – | – | – | –
5 | Nc1nc2cccc(-c3ccccc3)c2n1Cc1ccc(Cl)c(Cl)c1 [compound 3] | – | 1.49 | – | – | 0.98 | 1.1 | 0.99 | – | – | – | –
6 | NCCOCCOCC(=O)Nc1nc2ncc(CNc3ccc(C(=O)NC(CCC(=O)O)C(=O)O)cc3)nc2c(=O)[nH]1 (stereo not shown) [compound 6] | 1.12 | 1.3 | 1.02 | 1.04 | – | – | – | – | – | – | –
7 | Nc1nc2[nH]cc(CCc3ccc(C(=O)N[C@@H](CCC(=O)O)C(=O)O)cc3)c2c(=O)[nH]1 [PTX, pemetrexed] | – | – | – | – | – | – | – | 1.02 | 1.04 | 0.92 | 0.9

From PMC6199744, “Development of Chemical Proteomics for the Folateome and Analysis of the Kinetoplastid Folateome” (ACS Infectious Diseases, 2018)
